Laboratory results as given in ChEMBL document CHEMBL1124647, “Conformational analysis and molecular modeling of 1-phenyl-, 4-phenyl-, and 1-benzyl-1,2,3,4-tetrahydroisoquinolines as D1 dopamine receptor ligands” (J Med Chem, 1989).

Columns and labels:
[1] = target: D(1A) dopamine receptor (Homo sapiens, UniProt P21728); assay: Binding potency of compound for Dopamine receptor D1 by displacing [3H]SCH-23390 radioligand
[2] = target: D(2) dopamine receptor (Homo sapiens, UniProt P14416); assay: Binding potency of compound for Dopamine receptor D2 by displacement of [3H]spiperone
Sequence of D(2) dopamine receptor (P14416 whole entry): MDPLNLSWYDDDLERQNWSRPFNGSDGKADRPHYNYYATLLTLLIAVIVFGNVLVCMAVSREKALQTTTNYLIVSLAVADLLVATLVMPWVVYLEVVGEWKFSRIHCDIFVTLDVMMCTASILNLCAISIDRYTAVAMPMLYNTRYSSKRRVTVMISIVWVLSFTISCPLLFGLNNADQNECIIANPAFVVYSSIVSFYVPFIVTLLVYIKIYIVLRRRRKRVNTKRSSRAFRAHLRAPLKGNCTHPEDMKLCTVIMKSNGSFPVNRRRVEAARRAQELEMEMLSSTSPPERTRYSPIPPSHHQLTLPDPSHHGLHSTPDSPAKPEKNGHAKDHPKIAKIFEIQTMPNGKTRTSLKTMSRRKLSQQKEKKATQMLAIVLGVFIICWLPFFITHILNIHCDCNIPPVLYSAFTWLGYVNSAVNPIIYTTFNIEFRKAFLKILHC

[3] = DSAC inhibitory potency obtained by the conversion of [32P]-ATP to [32P]-cAMP

Sequence of D(1A) dopamine receptor (P21728 whole entry): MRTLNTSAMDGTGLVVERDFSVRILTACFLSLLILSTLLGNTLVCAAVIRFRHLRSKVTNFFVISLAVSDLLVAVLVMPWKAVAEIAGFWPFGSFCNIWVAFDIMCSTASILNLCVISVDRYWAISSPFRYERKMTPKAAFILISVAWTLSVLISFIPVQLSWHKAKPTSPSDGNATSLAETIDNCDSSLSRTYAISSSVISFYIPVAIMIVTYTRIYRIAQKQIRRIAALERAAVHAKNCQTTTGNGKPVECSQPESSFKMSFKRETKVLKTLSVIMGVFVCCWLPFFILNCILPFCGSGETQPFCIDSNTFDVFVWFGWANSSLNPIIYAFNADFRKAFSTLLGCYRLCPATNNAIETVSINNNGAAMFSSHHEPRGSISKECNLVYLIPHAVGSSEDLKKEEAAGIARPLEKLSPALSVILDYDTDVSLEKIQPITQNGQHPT

Row | Ki [1] [nM] | Ki [2] [nM] | Log Ki [3] | Compound
1 | 26.9 | 145 | -8.2 | CN1CCc2cc(Cl)c(O)cc2[C@@H]1Cc1ccccc1
2 | 141 | 3720 | -6.96 | Oc1cc2c(cc1Cl)CCN[C@H]2c1ccccc1
3 | 6.61 | 1860 | -8.18 | CN1CCc2cc(Cl)c(O)cc2[C@@H]1c1ccccc1
4 | 178 | 1910 | -6.69 | CCCN1CCc2cc(Cl)c(O)cc2[C@@H]1c1ccccc1
5 | 447 | 19100 | -6.25 | CN1CCc2cc(Cl)c(O)cc2[C@H]1c1ccccc1
6 | – | – | -9.33 | CN1CCc2cc(Cl)c(O)cc2[C@@H](c2ccccc2)C1 [SCH-23390]

Row | Compound | Ki [1] [nM] | Ki [2] [nM] | Log Ki [3]
7 | Oc1cc2c(cc1Cl)CNC[C@H]2c1ccccc1 | 282 | 1820 | -6.2
8 | CN1Cc2cc(Cl)c(O)cc2[C@H](c2ccccc2)C1 | 87.1 | 263 | -6.99
